A word on the Ki: it is the equilibrium dissociation constant of an inhibitor or competing ligand from its target. As a reminder, the EC50 is the concentration giving half of the maximal effect. In general, GI50 refers to the concentration that inhibits growth by half.

Where two headings read alike, the source gives them in different places. Numbered stars: 1 amine (or outer) side, 2 acyl side, 3 side chain; on linkers, the order of the positions; unused ones are H or OH. Bridge positions count the residues as written; N and C are the ends. Square brackets hold non-standard residues; d marks the D form. Peptide text beside a SMILES is read from it. Glu(cHx) = L-glutamic acid cyclohexyl ester, O=C(CC[C@H](N[*:1])C(=O)[*:2])OC1CCCCC1; Pro(4S-SH) = O=C([C@@H]1C[C@H](S[*:3])CN1[*:1])[*:2]; Trp(6-Cl) = N[C@@H](Cc1c[nH]c2cc(Cl)ccc12)C(=O)O; Cha = N[C@@H](CC1CCCCC1)C(=O)O; Orn = NCCC[C@H](N)C(=O)O

We go through seven molecules from patent US20170369523A1, “TEMPLATE-FIXED BETA-HAIRPIN PEPTIDOMIMETICS THAT ARE LIGANDS FOR G-PROTEIN-COUPLED RECEPTORS (GPCRS) AND ARE MODULATORS OF TRANSCRIPTION FACTORS AND COACTIVATORS” (POLYPHOR AG, priority 2008, published 2017).

For one data set, the target named is T1, NCoA-1 (Homo sapiens, UniProt Q15788).
T1 sequence (Q15788 257-385 limits assumed): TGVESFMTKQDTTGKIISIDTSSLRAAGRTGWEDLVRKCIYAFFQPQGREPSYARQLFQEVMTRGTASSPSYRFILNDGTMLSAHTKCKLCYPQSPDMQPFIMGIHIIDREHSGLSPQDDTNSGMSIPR
The experiment in a line: Competition fluorescence polarization assay: NCoA-1 binding affinities of peptides (STAT6/NCoA-1 interaction). The conditions noted are these: competition with FluoSTAT6 (200 nM), NCoA-1 1 μM; Ki calculated from IC50; read-out: Ki [μM], peptide binding to NCoA-1. Here is the method:
2.4. Fluorescence Polarization Assay: NCoA-1 Binding Affinities of Peptides
The mixtures were shaken thoroughly. Fluorescence polarization was measured on a SPECTRAmax M5 spectrometer (Molecular device) following 5-30 min incubation at room temperature. FluoSTAT6 was excited at 490 nm and emission polarization was detected at 525 nm. 40 intensity measurements were collected for each well, 20 at horizontal position of the dynamic polarizer, 20 at parallel position. As the fraction of FluoSTAT6 bound to NCoA-1 is correlated to the fluorescence polarization (FP), after normalization, the fraction of bound FluoSTAT6 (B) was determined, and the KD was calculated according to B=[(1+P/R+KD/R)−((1+P/R+KD/R)^2−4P/R)^0.5]/2, wherein P is the total probe concentration, R the total protein concentration and KD the dissociation constant (M. H. Roehrl, J. Y. Wang, G. Wagner, Biochemistry 2004, 3, 16056).
The mixture was completed by a HEPES buffer solution of NCoA-1 (1 μM final concentration) and processed as described above. STAT6Y (C-terminal tyrosine extended STAT6 794-814 peptide) was used as a positive control. As the total fluorescence intensity of FluoSTAT6 remains similar for all samples, the fraction of peptide bound to NCoA-1 is correlated to the fluorescence polarization.
Following normalization data were fitted with IGORpro Software® (WaveMetrics, Lake Oswego, Oreg., USA) to a sigmoid equation to determine IC50 values. The Ki values were calculated from IC50 values according to the method described by Nikolovska-Coleska et al. Anal. Biochem., 2004, 332, 261).

In data set [1] the target is T2, human UTR2 receptor (Homo sapiens, UniProt Q9UKP6).
T2 construct: expressed in transfected cells; host or cells: mouse pre-B cell line 300-19
T2 sequence (Q9UKP6 1-389): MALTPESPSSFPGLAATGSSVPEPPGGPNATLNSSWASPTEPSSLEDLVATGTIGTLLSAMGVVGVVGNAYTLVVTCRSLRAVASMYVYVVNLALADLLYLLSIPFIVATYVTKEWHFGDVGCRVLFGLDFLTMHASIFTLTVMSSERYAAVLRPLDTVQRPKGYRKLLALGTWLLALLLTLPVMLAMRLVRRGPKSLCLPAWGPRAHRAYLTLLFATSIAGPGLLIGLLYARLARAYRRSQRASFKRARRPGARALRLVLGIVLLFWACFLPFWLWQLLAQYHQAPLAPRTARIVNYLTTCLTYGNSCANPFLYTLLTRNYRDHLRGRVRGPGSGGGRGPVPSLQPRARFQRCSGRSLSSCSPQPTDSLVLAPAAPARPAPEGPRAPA
The experiment in a line: Ca2+ assay: UTR2 receptor-agonizing and antagonizing activity (calcium mobilization, Flexstation). It is filed as cell-based. From the text:
2.3. Ca^2+− Assay: UTR2 Receptor-Agonizing and Antagonizing Activity of the Peptides
The mouse pre-B cell line 300-19 was stably transfected with the cDNA encoding the human UTR2 receptor (GenBank Acc# NM_018949), and expression was confirmed with a positive calcium signal in response to human urotensin (Sigma Aldrich). Increases in intracellular calcium were monitored using a Flexstation 384 (Molecular Devices, Sunnyvale, Calif.). The cells were batch loaded with the Calcium 4 Assay kit (Molecular Devices) in assay buffer (Hanks Balanced salt solution, HBSS, 20 mM HEPES, pH 7.4, 0.1% BSA) for 1 h at room temperature and labeled cells were dispensed into either black 96 well or 384 well assay plates (Greiner). Calcium mobilization induced by urotensin or test compounds was measured in the Flexstation 384 (excitation, 485 nm; emission, 525 nm) for 70 seconds. Agonist activity was determined by direct addition of ligand or peptides, while antagonists were identified by spiking the cells with test compounds prior to urotensin addition. A dose response curve (compound concentration versus % maximum response for urotensin) was determined for each active agonist and antagonist and was fitted to a four parameter logistic equation using SoftmaxPro 4.8 (Molecular Devices), from which EC50% and IC50% values were calculated.
Background: Calcium assays in cells follow changes in intracellular calcium, usually with a dye or a luminescent sensor.

Data set [2] can be described thus: in vitro. Type of data set: cell-based. Here is the method:
(§1) The cytotoxicity of the peptides to HELA cells (Acc57) and COS-7 cells (CRL-1651) was determined using the MTT reduction assay. Briefly, the method was as follows: 7000 HELA cells/well and 4500 COS-7 cells/well were seeded and grown in 96-well microtiter plates for 24 h at 37° C. at 5% CO2. Thereafter, time zero (Tz) was determined by MTT reduction (see below). The supernatant of the remaining wells was discarded, and fresh medium and compounds in serial dilutions (12.5, 25 and 50 μM, triplicates) were pipetted into the wells. After incubation of the cells for 48 h at 37° C. at 5% CO2 the supernatant was discarded again and 100 μL MTT reagent (0.5 mg/mL in RPMI1640 and DMEM, respectively)/well was added. Following incubation at 37° C. for 2 h the media were aspirated and the cells were spiked (100 μl isopropanol/well). The absorbance of the solubilized formazan was measured at 595 nm (OD595peptide). For each concentration averages were calculated from triplicates. The percentage of growth was calculated as follows: (OD595peptide-OD595Tz-OD595Empty well)/(OD595Tz-OD595Empty well)×100%. The GI50 (Growth Inhibition) concentrations were calculated for each peptide by using a trend line function for the concentrations (50, 25, 12.5 and 0 μM), the corresponding percentages and the value 50, (=TREND (C50:C0,%50:%0,50).

The nature of data set [3]: in vitro. Type of data set: cell-based. Here is the method:
as §1
This is another data set of the same source.

Data set [4] relates to human red blood cells (hRBC). Type of data set: cell-based. To be noted: red cells of human, 1 h. Here is the method: The peptides were tested for their hemolytic activity against human red blood cells (hRBC). Fresh hRBC were washed three times with phosphate buffered saline (PBS) and centrifuged for 10 min at 2000×g. Compounds (100 μM) were incubated with 20% hRBC (v/v) for 1 h at 37° C. The final erythrocyte concentration was approximately 0.9×10^9 cells/mL. A value of 0% and 100% cell lyses, respectively, was determined by incubation of hRBC in the presence of PBS alone and 0.1% Triton X-100 in H2O, respectively. The samples were centrifuged, the supernatants were 20-fold diluted in PBS buffer and the optical densities (OD) were measured at 540 nm. The 100% lyses value (OD540H2O) gave an OD540 of approximately 1.3-1.8. Percent hemolysis was calculated as follows: […]

Data set [5] in a line: Plasma stability, human plasma. Type of data set: in vitro ADME. The conditions noted are these: 37° C., sampled up to 240 min. Here is the method: (§2) The stability of the peptides in human and mouse plasma was determined by applying the following method: 315 μl/deep well of freshly thawed human plasma (Basler Blutspende-dienst) and mouse plasma (Harlan Sera-Lab, UK), respectively, were spiked with 35 μl/well of compound in PBS (100 μM, triplicate) and incubated at 37° C. At t=0, 15, 30, 60, 120 and 240 min aliquots of 50 μl were transferred to filtration plate wells containing 150 μl/well of acetonitrile. Following shaking for 2 min the occurred suspensions were filtrated by vacuum and finally. 100 μl of each filtrate were transferred to a propylene microtiter plate, and analyzed by LC/MS as follows: Column: Waters, XBridge C18, mobile phases: (A) water+0.1% formic acid and (B) acetonitrile/water, 95/5 (v/v)+0.1% formic acid, gradient: 5%-100% (B) in 2 minutes, electrospray ionization, MRM detection (triple quadrupole). The peak areas were determined and triplicate values were averaged. The stability was expressed in percent of the initial value at t=0. (tx/t0×100). By using the TREND function of EXCEL (Microsoft Office 2003) T1/2 were determined.

A short description of data set [6]: Plasma stability, mouse plasma. Type of data set: in vitro ADME. The conditions noted are these: 37° C., sampled up to 240 min. Here is the method:
as §2

Data set [7] deals with T3, human UTR2 receptor (human, UniProt Q9UKP6 1-389).
T3 sequence (looked up): T2 sequence (Q9UKP6 1-389)
Put plainly: cell-based or functional assay.

As to `CC[C@H](C)[C@@H]1NC(=O)[C@H](CCC(=O)O)NC(=O)[C@H](Cc2c[nH]c3ccccc23)NC(=O)[C@H](C)NC(=O)[C@H](CC(C)C)NC(=O)[C@H](Cc2c[nH]c3ccccc23)NC(=O)[C@H](CCC(=O)O)NC(=O)[C@H](Cc2ccccc2)NC(=O)[C@@H]2CCCN2C(=O)[C@H]2CCCN2C1=O` [compound 10] (cyclo(FEWLAWEI[dP]P)), on NCoA-1, the Ki was 3.1 µM.
`C[C@@H]1NC(=O)[C@H](CS)NC(=O)[C@H](Cc2c[nH]c3cc(Cl)ccc23)NC(=O)[C@H](CCC(=O)O)NC(=O)[C@H](Cc2ccccc2)NC(=O)[C@@H]2CCCN2C(=O)[C@H]2CCCN2C(=O)[C@H](Cc2ccccc2)NC(=O)[C@H](CCC(=O)O)NC(=O)[C@H](Cc2c[nH]c3ccccc23)NC1=O` [compound 15] (cyclo(FE[Trp(6-Cl)]CAWEF[dP]P)): the Ki on NCoA-1 was 3.1 µM.
As for `CC(C)[C@@H]1NC(=O)[C@@H]2CSSC[C@H](NC(=O)[C@H](CC(=O)O)NC(=O)[C@@H]3CCCN3C(=O)[C@H]3CCCN3C1=O)C(=O)N[C@@H](Cc1ccccc1)C(=O)N[C@H](Cc1c[nH]c3ccccc13)C(=O)N[C@@H](CCCCN)C(=O)N[C@@H](Cc1ccc(O)cc1)C(=O)N2` [compound 34], the EC50 at human UTR2 receptor [1] was below 0.002 µM. Also, the 50% growth inhibitory concentration (GI50) in the data set “in vitro [2]” and in the data set “in vitro [3]” was above 50 µM throughout. Also, the “Hemolysis at 100 μM [%]” value in data set [4] was determined as 0%. Moreover, in data set [5], the “Plasmastability human pl. T1/2” value was determined as 4 h. In data set [6], the “Plasmastability mouse pl. T1/2” value was determined as 4 h.
As to “backbone-cyclized β-hairpin peptidomimetic; P1-P8 Phe-Glu-Trp-Leu-Ala-Trp-Glu-Glu(cHx), template DPro-LPro (cyclo(FEWLAWE[Glu(cHx)][dP]P); SMILES CC(C)C[C@@H]1NC(=O)[C@H](Cc2c[nH]c3ccccc23)NC(=O)[C@H](CCC(=O)O)NC(=O)[C@H](Cc2ccccc2)NC(=O)[C@@H]2CCCN2C(=O)[C@H]2CCCN2C(=O)[C@H](CCC(=O)OC2CCCCC2)NC(=O)[C@H](CCC(=O)O)NC(=O)[C@H](Cc2c[nH]c3ccccc23)NC(=O)[C@H](C)NC1=O) [compound 9]”, in the data set with NCoA-1, the Ki was 1.5 µM.
Turning to “backbone-cyclized β-hairpin peptidomimetic; P1-P8 Phe-Thr-Trp(6Cl)-Leu-Ala-Trp-Glu-Phe, template DPro-L4Mp1 (cyclo(FT[Trp(6-Cl)]LAWEF[dP][Pro(4S-SH)]); SMILES CC(C)C[C@@H]1NC(=O)[C@H](Cc2c[nH]c3cc(Cl)ccc23)NC(=O)[C@H]([C@@H](C)O)NC(=O)[C@H](Cc2ccccc2)NC(=O)[C@@H]2C[C@H](S)CN2C(=O)[C@H]2CCCN2C(=O)[C@H](Cc2ccccc2)NC(=O)[C@H](CCC(=O)O)NC(=O)[C@H](Cc2c[nH]c3ccccc23)NC(=O)[C@H](C)NC1=O) [compound 5]”, the Ki in the data set with NCoA-1 is 3.8 µM.

B1: Ex. 35 (peptide)
peptide: cyclo(DCFWKYC[Cha][dP]P)
modifications: disulfide 2-7
SMILES: NCCCC[C@@H]1NC(=O)[C@H](Cc2c[nH]c3ccccc23)NC(=O)[C@H](Cc2ccccc2)NC(=O)[C@@H]2CSSC[C@H](NC(=O)[C@H](Cc3ccc(O)cc3)NC1=O)C(=O)N[C@@H](CC1CCCCC1)C(=O)N1CCC[C@@H]1C(=O)N1CCC[C@H]1C(=O)N[C@@H](CC(=O)O)C(=O)N2
B1: the “IC50% (Ca2+ assay, antagonist activity; compound added prior to urotensin)” value in the data set with human UTR2 receptor [7] stood at 200 pM.

B2: Ex. 32 (peptide)
peptide: cyclo(DCF[dW][Orn]YCV[dP]P)
modifications: disulfide 2-7
SMILES: CC(C)[C@@H]1NC(=O)[C@@H]2CSSC[C@H](NC(=O)[C@H](CC(=O)O)NC(=O)[C@@H]3CCCN3C(=O)[C@H]3CCCN3C1=O)C(=O)N[C@@H](Cc1ccccc1)C(=O)N[C@H](Cc1c[nH]c3ccccc13)C(=O)N[C@@H](CCCN)C(=O)N[C@@H](Cc1ccc(O)cc1)C(=O)N2
For B2, in the data set with human UTR2 receptor [7], the “IC50% (Ca2+ assay, antagonist activity; compound added prior to urotensin)” value came to 30 pM.
